Measurements: the supplement of paper PMC10307832

Columns and labels:
Assay in all cases: relative viability (nuclei count vs DMSO), 5 days (fraction); higher = more cells survive
ABC-1 = system: ABC-1
Outline: (§1)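 The day after seeding in 1536-well plates, lung cancer cell lines were treated by pin tool with a single drug, or with a fixed anchor-drug dose together with five library-drug doses (not always all listed) in √10 steps. After 5 days, a combined fix-and-stain solution (final 0.05% Triton X-100, 1% formaldehyde, 1 ug/ml Hoechst) was added. Nuclei counted on 4× images gave relative viability as treated counts over vehicle counts, reported as the median of duplicate plates.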

SW 900 = system: SW 900
Outline: as §1

LK-2 = system: LK-2
Outline: as §1

EMC-BAC-2 = system: EMC-BAC-2
Outline: as §1

HARA = system: HARA
Outline: as §1

NCI-H596 = system: NCI-H596
Outline: as §1

A-427 = system: A-427
Outline: as §1

NCI-H1944 = system: NCI-H1944
Outline: as §1

NCI-H727 = system: NCI-H727
Outline: as §1

NCI-H1792 = system: NCI-H1792
Outline: as §1

NCI-H1993 = system: NCI-H1993
Outline: as §1

NCI-H1793 = system: NCI-H1793
Outline: as §1

PC-3 [JPC-3] = system: PC-3 [JPC-3]
Outline: as §1

NCI-H2170 = system: NCI-H2170
Outline: as §1

LXF-289 = system: LXF-289
Outline: as §1

LU99A = system: LU99A
Outline: as §1

NCI-H3122 = system: NCI-H3122
Outline: as §1

HOP-62 = system: HOP-62
Outline: as §1

For `COc1cc(N2CCC(C(N)=O)CC2)ccc1Nc1nc(N)c(Cl)c(Nc2ccccc2S(=O)(=O)C(C)C)n1` [HG-5-88-01] + NC(=O)Nc1cc(-c2cccc(F)c2)sc1C(=O)N[C@H]1CCCNC1 [AZD7762] (partner 0.2 µM), the relative viability (ABC-1; first compound 0.04 µM) was 0.663, the relative viability (ABC-1; first compound 0.1265 µM) was 0.63 and the relative viability (ABC-1; first compound 0.4 µM) was 0.645. The relative viability (ABC-1; first compound 1.265 µM) was 0.688, the relative viability (ABC-1; first compound 4 µM) was 0.657 and the relative viability (SW 900; first compound 0.04 µM) was 0.582. For the same compound, the relative viability (SW 900; first compound 0.1265 µM) was 0.713, the relative viability (SW 900; first compound 0.4 µM) was 0.583 and the relative viability (SW 900; first compound 1.265 µM) was 0.517. It also gave a relative viability (SW 900; first compound 4 µM) of 0.528, a relative viability (LK-2; first compound 0.04 µM) of 0.326 and a relative viability (LK-2; first compound 0.1265 µM) of 0.329. It also gave a relative viability (LK-2; first compound 0.4 µM) of 0.301, a relative viability (LK-2; first compound 4 µM) of 0.157 and a relative viability (EMC-BAC-2; first compound 0.04 µM) of 1.09. The relative viability (EMC-BAC-2; first compound 0.1265 µM) was 1.21, the relative viability (EMC-BAC-2; first compound 0.4 µM) was 0.922 and the relative viability (EMC-BAC-2; first compound 1.265 µM) was 0.975. It also gave a relative viability (EMC-BAC-2; first compound 4 µM) of 0.65, a relative viability (HARA; first compound 0.04 µM) of 0.493 and a relative viability (HARA; first compound 0.1265 µM) of 0.313. For the same compound, the relative viability (HARA; first compound 0.4 µM) was 0.332, the relative viability (HARA; first compound 1.265 µM) was 0.352 and the relative viability (HARA; first compound 4 µM) was 0.322. The relative viability (NCI-H596; first compound 0.04 µM) was 1.05, the relative viability (NCI-H596; first compound 0.1265 µM) was 1.07 and the relative viability (NCI-H596; first compound 0.4 µM) was 1.04. The relative viability (NCI-H596; first compound 1.265 µM) was 1.06, the relative viability (NCI-H596; first compound 4 µM) was 0.697 and the relative viability (A-427; first compound 0.04 µM) was 0.67. The relative viability (A-427; first compound 0.1265 µM) was 0.776, the relative viability (A-427; first compound 0.4 µM) was 0.744 and the relative viability (A-427; first compound 1.265 µM) was 0.656. It also gave a relative viability (A-427; first compound 4 µM) of 0.679, a relative viability (NCI-H1944; first compound 0.04 µM) of 0.586 and a relative viability (NCI-H1944; first compound 0.1265 µM) of 0.503. For the same compound, the relative viability (NCI-H1944; first compound 0.4 µM) was 0.434, the relative viability (NCI-H1944; first compound 1.265 µM) was 0.514 and the relative viability (NCI-H1944; first compound 4 µM) was 0.469. For the same compound, the relative viability (NCI-H727; first compound 0.04 µM) was 0.729, the relative viability (NCI-H727; first compound 0.1265 µM) was 0.633 and the relative viability (NCI-H727; first compound 0.4 µM) was 0.597. It also gave a relative viability (NCI-H727; first compound 4 µM) of 0.377, a relative viability (NCI-H1792; first compound 0.04 µM) of 0.752 and a relative viability (NCI-H1792; first compound 0.1265 µM) of 0.648. For the same compound, the relative viability (NCI-H1792; first compound 0.4 µM) was 0.645, the relative viability (NCI-H1792; first compound 1.265 µM) was 0.581 and the relative viability (NCI-H1792; first compound 4 µM) was 0.557. It also gave a relative viability (NCI-H1993; first compound 0.04 µM) of 0.845, a relative viability (NCI-H1993; first compound 0.1265 µM) of 0.875 and a relative viability (NCI-H1993; first compound 0.4 µM) of 0.77. For the same compound, the relative viability (NCI-H1993; first compound 4 µM) was 0.558, the relative viability (NCI-H1793; first compound 0.04 µM) was 0.557 and the relative viability (NCI-H1793; first compound 0.1265 µM) was 0.409. For the same compound, the relative viability (NCI-H1793; first compound 0.4 µM) was 0.379, the relative viability (NCI-H1793; first compound 1.265 µM) was 0.452 and the relative viability (NCI-H1793; first compound 4 µM) was 0.186. For the same compound, the relative viability (PC-3 [JPC-3]; first compound 0.04 µM) was 0.863, the relative viability (PC-3 [JPC-3]; first compound 0.1265 µM) was 0.703 and the relative viability (PC-3 [JPC-3]; first compound 0.4 µM) was 0.732. The relative viability (PC-3 [JPC-3]; first compound 1.265 µM) was 0.713, the relative viability (PC-3 [JPC-3]; first compound 4 µM) was 0.344 and the relative viability (NCI-H2170; first compound 0.04 µM) was 0.819. The relative viability (NCI-H2170; first compound 0.1265 µM) was 0.878, the relative viability (NCI-H2170; first compound 0.4 µM) was 0.907 and the relative viability (NCI-H2170; first compound 1.265 µM) was 0.402. It also gave a relative viability (NCI-H2170; first compound 4 µM) of 0.934, a relative viability (LXF-289; first compound 0.04 µM) of 1.11 and a relative viability (LXF-289; first compound 0.1265 µM) of 1.05. For the same compound, the relative viability (LXF-289; first compound 0.4 µM) was 1.06, the relative viability (LXF-289; first compound 1.265 µM) was 1.12 and the relative viability (LXF-289; first compound 4 µM) was 1.11. The relative viability (LU99A; first compound 0.04 µM) was 0.326, the relative viability (LU99A; first compound 0.1265 µM) was 0.336 and the relative viability (LU99A; first compound 0.4 µM) was 0.369. The relative viability (LU99A; first compound 1.265 µM) was 0.366, the relative viability (LU99A; first compound 4 µM) was 0.295 and the relative viability (NCI-H3122; first compound 0.04 µM) was 0.744. The relative viability (NCI-H3122; first compound 0.1265 µM) was 0.376, the relative viability (NCI-H3122; first compound 0.4 µM) was 0.315 and the relative viability (NCI-H3122; first compound 1.265 µM) was 0.24. It also gave a relative viability (NCI-H3122; first compound 4 µM) of 0.114, a relative viability (HOP-62; first compound 0.04 µM) of 0.463 and a relative viability (HOP-62; first compound 0.1265 µM) of 0.736. For the same compound, the relative viability (HOP-62; first compound 0.4 µM) was 0.654, the relative viability (HOP-62; first compound 1.265 µM) was 0.55 and the relative viability (HOP-62; first compound 4 µM) was 0.584.
